Measurements taken from BindingDB's records for PubMed 38714043 (Sichuan University).

Target: T1, Tyrosine-protein kinase receptor UFO (Homo sapiens, UniProt P30530)
T1 sequence (P30530 whole entry): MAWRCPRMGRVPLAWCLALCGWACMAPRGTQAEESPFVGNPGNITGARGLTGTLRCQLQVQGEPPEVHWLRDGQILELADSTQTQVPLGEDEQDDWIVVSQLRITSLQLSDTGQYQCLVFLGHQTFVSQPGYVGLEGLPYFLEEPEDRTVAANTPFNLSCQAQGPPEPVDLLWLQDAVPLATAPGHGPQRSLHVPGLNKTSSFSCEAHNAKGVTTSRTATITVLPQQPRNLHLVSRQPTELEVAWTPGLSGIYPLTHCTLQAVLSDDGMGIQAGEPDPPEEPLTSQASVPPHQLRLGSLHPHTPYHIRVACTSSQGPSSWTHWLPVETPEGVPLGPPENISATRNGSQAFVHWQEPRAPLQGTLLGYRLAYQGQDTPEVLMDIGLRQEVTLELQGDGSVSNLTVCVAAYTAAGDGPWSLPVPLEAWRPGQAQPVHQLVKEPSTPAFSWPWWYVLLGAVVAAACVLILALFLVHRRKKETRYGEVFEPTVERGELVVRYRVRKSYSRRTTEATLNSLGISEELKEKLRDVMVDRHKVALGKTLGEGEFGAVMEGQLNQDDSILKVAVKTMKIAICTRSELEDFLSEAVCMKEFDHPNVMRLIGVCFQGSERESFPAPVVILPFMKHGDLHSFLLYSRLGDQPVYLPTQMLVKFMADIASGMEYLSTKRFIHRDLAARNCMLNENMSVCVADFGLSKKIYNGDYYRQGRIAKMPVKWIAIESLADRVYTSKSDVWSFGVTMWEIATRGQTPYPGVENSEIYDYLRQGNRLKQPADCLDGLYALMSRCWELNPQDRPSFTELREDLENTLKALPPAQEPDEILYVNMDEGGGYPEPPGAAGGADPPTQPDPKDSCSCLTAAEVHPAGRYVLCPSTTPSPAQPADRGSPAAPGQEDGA
Assay: Inhibition of AXL (unknown origin)

IC50: 44 nM
Structure (SMILES): COc1cc2ncnc(Oc3ccc(NC(=O)c4c5n(n(-c6ccccc6)c4=O)CCCC5)cc3)c2cc1OC
